Test results reported in PMC4776319 (Water research, 2015).
Like-named read-outs stand apart in the source and are kept apart here. Values belong to the molecule of their own block, whether it stands above or below them.

How the values were obtained:
[1] = system: neuroblastoma cells (SK-N-SH)
[2] = target: T1, glucocorticoid receptor (GR) (Homo sapiens, UniProt P04150); assay: GR-Switchgear; type: cell-based; details: reference chemical
T1 sequence (P04150 1-777): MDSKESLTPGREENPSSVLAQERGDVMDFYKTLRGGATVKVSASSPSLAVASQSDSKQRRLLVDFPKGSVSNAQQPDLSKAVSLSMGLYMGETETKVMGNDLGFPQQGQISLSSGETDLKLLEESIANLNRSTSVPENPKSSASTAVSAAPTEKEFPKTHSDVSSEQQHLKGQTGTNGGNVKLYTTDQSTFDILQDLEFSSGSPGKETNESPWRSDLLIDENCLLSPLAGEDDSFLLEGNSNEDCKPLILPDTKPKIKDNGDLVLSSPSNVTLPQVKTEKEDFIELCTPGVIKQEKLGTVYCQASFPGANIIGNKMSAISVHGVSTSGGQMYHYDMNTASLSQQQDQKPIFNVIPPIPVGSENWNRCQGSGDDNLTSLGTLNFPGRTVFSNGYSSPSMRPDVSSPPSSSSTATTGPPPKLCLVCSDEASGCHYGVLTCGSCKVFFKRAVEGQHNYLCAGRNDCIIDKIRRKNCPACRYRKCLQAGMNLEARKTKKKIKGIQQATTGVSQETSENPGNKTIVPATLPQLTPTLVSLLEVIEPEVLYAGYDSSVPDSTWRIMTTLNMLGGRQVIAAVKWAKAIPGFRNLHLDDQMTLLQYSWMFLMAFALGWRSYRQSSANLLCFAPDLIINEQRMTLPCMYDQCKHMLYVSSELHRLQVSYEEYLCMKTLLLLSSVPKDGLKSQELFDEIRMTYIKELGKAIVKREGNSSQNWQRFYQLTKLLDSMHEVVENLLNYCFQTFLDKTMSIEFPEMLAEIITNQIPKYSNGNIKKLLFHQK

[3] = system: monocyte cell line (THP1); details: read-out: EC50 value in literature; ref Leusch et al., 2014; cited from earlier work
[4] = system: monocyte cell line (THP1); assay: THP1-cp cytokine production
algae photosynthesis [5] = assay: I-PAM algae photosynthesis inhibition; type: cell-based
algae growth [6] = assay: Algae growth inhibition; type: cell-based
algae photosynthesis [7] = details: read-out: EC50 value in literature, cited from earlier work
algae growth [8] = details: read-out: EC50 value in literature; ref Escher et al., 2008a; cited from earlier work
[9] = target: T2, peroxisome proliferator-activated receptor (PPARγ) (Homo sapiens, UniProt P37231); assay: PPARγ-GeneBLAzer-Anta; type: cell-based; details: antagonist mode
T2 sequence (P37231 238-505 limits assumed): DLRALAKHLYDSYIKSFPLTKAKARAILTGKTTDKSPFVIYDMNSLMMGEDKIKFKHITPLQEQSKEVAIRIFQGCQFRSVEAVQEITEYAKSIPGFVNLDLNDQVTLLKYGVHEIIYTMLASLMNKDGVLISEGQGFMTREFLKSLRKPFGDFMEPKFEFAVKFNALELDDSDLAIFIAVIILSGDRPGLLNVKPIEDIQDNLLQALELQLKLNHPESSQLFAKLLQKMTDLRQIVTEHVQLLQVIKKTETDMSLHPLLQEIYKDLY

[10] = target: T2, peroxisome proliferator-activated receptor (PPARγ); details: read-out: EC50 value in literature; antagonist mode; ref Invitrogen, 2007b; cited from earlier work
[11] = target: T3, progesterone receptor (PR) (Homo sapiens, UniProt P06401); assay: PR-CALUX progestagenic effects; type: cell-based; details: reference chemical
T3 sequence (P06401 1-933): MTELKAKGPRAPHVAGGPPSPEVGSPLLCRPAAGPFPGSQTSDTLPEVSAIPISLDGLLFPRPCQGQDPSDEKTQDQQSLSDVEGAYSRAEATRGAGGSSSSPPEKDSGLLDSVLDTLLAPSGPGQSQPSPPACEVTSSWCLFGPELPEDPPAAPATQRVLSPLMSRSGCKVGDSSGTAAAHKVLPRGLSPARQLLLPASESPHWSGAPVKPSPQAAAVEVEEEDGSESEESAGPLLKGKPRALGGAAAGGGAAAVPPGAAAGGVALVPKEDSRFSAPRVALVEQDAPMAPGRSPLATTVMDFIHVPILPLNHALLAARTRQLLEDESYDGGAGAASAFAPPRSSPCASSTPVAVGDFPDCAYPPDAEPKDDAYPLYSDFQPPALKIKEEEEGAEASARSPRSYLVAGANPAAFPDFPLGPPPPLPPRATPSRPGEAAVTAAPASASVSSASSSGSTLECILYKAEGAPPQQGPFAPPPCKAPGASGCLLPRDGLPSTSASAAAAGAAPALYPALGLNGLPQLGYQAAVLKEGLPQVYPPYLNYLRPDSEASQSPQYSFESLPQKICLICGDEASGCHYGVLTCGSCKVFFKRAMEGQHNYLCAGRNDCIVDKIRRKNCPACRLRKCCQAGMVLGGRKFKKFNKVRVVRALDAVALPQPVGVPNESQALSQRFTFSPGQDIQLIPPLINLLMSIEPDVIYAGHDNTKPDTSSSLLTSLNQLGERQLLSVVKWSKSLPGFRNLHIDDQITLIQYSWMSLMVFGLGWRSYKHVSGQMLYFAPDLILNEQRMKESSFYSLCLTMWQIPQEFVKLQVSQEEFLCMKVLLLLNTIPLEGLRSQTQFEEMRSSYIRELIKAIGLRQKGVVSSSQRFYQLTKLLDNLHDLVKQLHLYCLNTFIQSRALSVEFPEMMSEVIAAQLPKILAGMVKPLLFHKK

Caco-2 cells = assay: Caco-2 NRU cytotoxicity; type: cell-based, human; details: carrier solvent as positive control
[12] = target: T3, progesterone receptor (PR); assay: PR-CALUX-Anta; type: cell-based; details: antagonist mode, 20% suppression
Jurkat cell line = assay: Jurkat E6-1 osmotic stress assay; type: cell-based; details: reference chemical
[13] = system: arylhydrocarbon receptor (AhR); assay: AhR CAFLUX; type: cell-based; details: reference chemical
[14] = system: arylhydrocarbon receptor (AhR); details: read-out: EC50 value in literature; ref Macova et al., 2010; cited from earlier work
[15] = system: thyroid activity (cell proliferation); assay: T-SCREEN cell proliferation assay, thyroid effects; type: cell-based
[16] = system: thyroid activity (cell proliferation); details: read-out: EC50 value in literature; ref Gutleb et al., 2005; cited from earlier work
Nrf2-MDA-MB cells [17] = assay: cells; type: cell-based, human
Nrf2-Keap-ARE32 pathway = details: read-out: EC50 value in literature; ref Escher et al., 2012; cited from earlier work
Nrf2-MDA-MB cells [18] = details: read-out: EC50 value in literature; ref Escher et al., 2012; cited from earlier work

EC10 [1]: 0.11 M
SMILES: C[S+](C)[O-] [DMSO, Dimethylsulfoxide]

SMILES: C[C@@H]1C[C@H]2[C@@H]3CCC4=CC(=O)C=C[C@]4(C)[C@@]3(F)[C@@H](O)C[C@]2(C)[C@@]1(O)C(=O)CO [Dexamethasone]
EC10 [2]: EC10 (0.5 nM); EC50 (2.6 nM)
EC50 [3]: 2.7 nM
EC50 ([4]; Homo sapiens, THP-1): 45 nM
EC10 ([4]; reference chemical): 2.1 nM

SMILES: CN(C)C(=O)Nc1ccc(Cl)c(Cl)c1 [Diuron]
EC50 (algae photosynthesis [5]): 6 nM
EC50 (algae growth [6]): 25 nM
EC50 (algae photosynthesis [7]; ref Escher et al., 2008a): 12.8 nM
EC50 (algae photosynthesis [7]; ref Macova et al., 2010): 68.6 nM
EC50 (algae growth [8]): 135 nM

ECSR0.2 ([9]; 20% suppression): 3.0 nM
IC50 ([9]; read-out: ECSR0.5, 50% suppression): 8.4 nM
SMILES: O=C(Nc1ccccc1)c1cc([N+](=O)[O-])ccc1Cl [GW9662]
EC50 [10]: 3.5 nM

EC10 [11]: 0.3 nM
SMILES: C#C[C@]1(O)CC[C@H]2[C@@H]3CCC4=CC(=O)CC[C@@H]4[C@H]3CC[C@@]21CC [Levonorgestrel]

SMILES: CO [Methanol]
EC10 (Caco-2 cells): 0.4 M

SMILES: CC#C[C@]1(O)CC[C@H]2[C@@H]3CCC4=CC(=O)CCC4=C3[C@@H](c3ccc(N(C)C)cc3)C[C@@]21C [Mifepristone]
ECSR0.2 [12]: 20 pM

SMILES: CCCCCCCCCCCCCC(=O)O[C@@H]1[C@@H](C)[C@@]2(O)[C@@H](C=C(CO)C[C@]3(O)C(=O)C(C)=C[C@@H]23)[C@@H]2C(C)(C)[C@]12OC(C)=O [PMA, Phorbol-12-myristate-13-acetate]
EC10 (Jurkat cell line): 3 nM
EC50 (Jurkat cell line): 20 nM

SMILES: Clc1cc2c(cc1Cl)Oc1cc(Cl)c(Cl)cc1O2 [TCDD, 2,3,7,8-TCDD]
EC10 [13]: 0.00065 nM
EC50 [13]: 0.008 nM
EC50 [14]: 0.0248 nM

SMILES: N[C@@H](Cc1cc(I)c(Oc2ccc(O)c(I)c2)c(I)c1)C(=O)O [Triiodothyronine]
EC50 [15]: 0.74 nM
EC10 ([15]; reference chemical): 0.28 nM
EC50 [16]: 0.191 nM

EC50 (Nrf2-MDA-MB cells [17]; Homo sapiens): 178000 nM
EC10 (Nrf2-MDA-MB cells [17]; human): 103000 nM
SMILES: CC(C)(C)c1cc(O)ccc1O [tBHQ, tert-Butylhydroquinone]
EC50 (Nrf2-Keap-ARE32 pathway): 1320 nM
EC50 (Nrf2-MDA-MB cells [18]): 46000 nM
